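Abbreviation: GI50, concentration required for 50% inhibition of growth. The concentration for full growth arrest is given as TGI.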
Experiments:
Assay in all cases: growth of human tumour cells (NCI), 384-well format
CAKI-1 renal = test system: CAKI-1 renal
K-562 leukemia = test system: K-562 leukemia
HL-60(TB) leukemia = test system: HL-60(TB) leukemia
BT-549 breast = test system: BT-549 breast
A498 renal = test system: A498 renal
U251 glioblastoma = test system: U251 glioblastoma
HCT-15 colon = test system: HCT-15 colon
UACC-257 melanoma = test system: UACC-257 melanoma
MOLT-4 leukemia = test system: MOLT-4 leukemia
PC-3 prostate = test system: PC-3 prostate
SK-OV-3 ovarian = test system: SK-OV-3 ovarian
SK-MEL-2 melanoma = test system: SK-MEL-2 melanoma
KM12 colon = test system: KM12 colon
M14 melanoma = test system: M14 melanoma
RXF 393 renal = test system: RXF 393 renal
DU-145 prostate = test system: DU-145 prostate
MDA-MB-231 breast = test system: MDA-MB-231 breast
NCI-H23 lung = test system: NCI-H23 lung
UACC-62 melanoma = test system: UACC-62 melanoma
HCT-116 colon = test system: HCT-116 colon
MCF7 breast = test system: MCF7 breast
SNB-75 CNS = test system: SNB-75 CNS
RPMI-8226 leukemia = test system: RPMI-8226 leukemia
SW-620 colon = test system: SW-620 colon
MDA-MB-468 breast = test system: MDA-MB-468 breast
TK-10 renal = test system: TK-10 renal
NCI-H226 lung = test system: NCI-H226 lung
SF-295 CNS = test system: SF-295 CNS
MALME-3M melanoma = test system: MALME-3M melanoma
NCI-H522 lung = test system: NCI-H522 lung
HCC-2998 colon = test system: HCC-2998 colon
COLO 205 colon = test system: COLO 205 colon
SK-MEL-5 melanoma = test system: SK-MEL-5 melanoma
HT29 colon = test system: HT29 colon
MDA-MB-435 melanoma = test system: MDA-MB-435 melanoma
OVCAR-3 ovarian = test system: OVCAR-3 ovarian
NCI-H460 NSCLC = test system: NCI-H460 NSCLC
IGROV1 ovarian = test system: IGROV1 ovarian
SR leukemia = test system: SR leukemia
CCRF-CEM leukemia = test system: CCRF-CEM leukemia
T-47D breast = test system: T-47D breast
HOP-62 NSCLC = test system: HOP-62 NSCLC
SK-MEL-28 melanoma = test system: SK-MEL-28 melanoma
SF-539 CNS = test system: SF-539 CNS
OVCAR-5 ovarian = test system: OVCAR-5 ovarian
UO-31 renal = test system: UO-31 renal
OVCAR-8 ovarian = test system: OVCAR-8 ovarian

C#Cc1cccc(Nc2ncnc3cc(OCCOC)c(OCCOC)cc23)c1
GI50 (CAKI-1 renal): 1.83 µM
TGI (CAKI-1 renal): 8.89 µM
GI50 (K-562 leukemia): 7.57 µM
TGI (K-562 leukemia): > 100 µM
GI50 (HL-60(TB) leukemia): 6.29 µM
TGI (HL-60(TB) leukemia): > 43.1 µM
GI50 (BT-549 breast): 14.9 µM
TGI (BT-549 breast): > 100 µM
GI50 (A498 renal): 1.97 µM
TGI (A498 renal): > 100 µM
GI50 (U251 glioblastoma): 43.4 µM
TGI (U251 glioblastoma): > 100 µM
GI50 (HCT-15 colon): 4.58 µM
TGI (HCT-15 colon): > 100 µM
GI50 (UACC-257 melanoma): 96.9 µM
TGI (UACC-257 melanoma): > 100 µM
GI50 (MOLT-4 leukemia): 7.14 µM
TGI (MOLT-4 leukemia): > 51.9 µM
GI50 (PC-3 prostate): 23 µM
TGI (PC-3 prostate): > 100 µM
GI50 (SK-OV-3 ovarian): 1.58 µM
TGI (SK-OV-3 ovarian): 8.28 µM
GI50 (SK-MEL-2 melanoma): 8.78 µM
TGI (SK-MEL-2 melanoma): > 100 µM
GI50 (KM12 colon): > 27.8 µM
TGI (KM12 colon): > 100 µM
GI50 (M14 melanoma): 6.72 µM
TGI (M14 melanoma): > 100 µM
GI50 (RXF 393 renal): 7.83 µM
TGI (RXF 393 renal): > 27.3 µM
GI50 (DU-145 prostate): 1.98 µM
TGI (DU-145 prostate): > 100 µM
GI50 (MDA-MB-231 breast): > 46.6 µM
TGI (MDA-MB-231 breast): > 100 µM
GI50 (NCI-H23 lung): 25.2 µM
TGI (NCI-H23 lung): > 100 µM
GI50 (UACC-62 melanoma): 6.74 µM
TGI (UACC-62 melanoma): > 90.5 µM
GI50 (HCT-116 colon): 11.6 µM
TGI (HCT-116 colon): > 100 µM
GI50 (MCF7 breast): > 100 µM
TGI (MCF7 breast): > 100 µM
GI50 (SNB-75 CNS): 8 µM
TGI (SNB-75 CNS): 50.5 µM
GI50 (RPMI-8226 leukemia): 7.94 µM
TGI (RPMI-8226 leukemia): > 88.4 µM
GI50 (SW-620 colon): > 100 µM
TGI (SW-620 colon): > 100 µM
GI50 (MDA-MB-468 breast): 0.183 µM
TGI (MDA-MB-468 breast): 0.777 µM
GI50 (TK-10 renal): 0.849 µM
TGI (TK-10 renal): > 100 µM
GI50 (NCI-H226 lung): 9.26 µM
TGI (NCI-H226 lung): > 100 µM
GI50 (SF-295 CNS): > 51.9 µM
TGI (SF-295 CNS): > 100 µM
GI50 (MALME-3M melanoma): 16.8 µM
TGI (MALME-3M melanoma): > 100 µM
GI50 (NCI-H522 lung): 0.433 µM
TGI (NCI-H522 lung): 3.47 µM
GI50 (HCC-2998 colon): 48.4 µM
TGI (HCC-2998 colon): > 100 µM
GI50 (COLO 205 colon): > 100 µM
TGI (COLO 205 colon): > 100 µM
GI50 (SK-MEL-5 melanoma): 1.94 µM
TGI (SK-MEL-5 melanoma): > 26.3 µM
GI50 (HT29 colon): > 90.8 µM
TGI (HT29 colon): > 100 µM
GI50 (MDA-MB-435 melanoma): > 100 µM
TGI (MDA-MB-435 melanoma): > 100 µM
GI50 (OVCAR-3 ovarian): 4.02 µM
TGI (OVCAR-3 ovarian): > 100 µM
GI50 (NCI-H460 NSCLC): 9.81 µM
TGI (NCI-H460 NSCLC): > 100 µM
GI50 (IGROV1 ovarian): 0.385 µM
TGI (IGROV1 ovarian): 5.62 µM
GI50 (SR leukemia): 21.4 µM
TGI (SR leukemia): > 67.5 µM
GI50 (CCRF-CEM leukemia): 11.2 µM
TGI (CCRF-CEM leukemia): > 100 µM
GI50 (T-47D breast): 6.56 µM
TGI (T-47D breast): > 89 µM
GI50 (HOP-62 NSCLC): 28.5 µM
TGI (HOP-62 NSCLC): > 100 µM
GI50 (SK-MEL-28 melanoma): > 85.1 µM
TGI (SK-MEL-28 melanoma): > 100 µM
GI50 (SF-539 CNS): 39.3 µM
TGI (SF-539 CNS): > 100 µM
GI50 (OVCAR-5 ovarian): 6.96 µM
TGI (OVCAR-5 ovarian): > 100 µM
GI50 (UO-31 renal): 2.04 µM
TGI (UO-31 renal): > 32.4 µM
GI50 (OVCAR-8 ovarian): 7.75 µM
TGI (OVCAR-8 ovarian): > 100 µM
